US12060387B2, “Polypeptide-based shuttle agents for improving the transduction efficiency of polypeptide cargos to the cytosol of target eukaryotic cells, uses thereof, methods and kits relating to same” (priority 2015, dated 2024)
Like-named read-outs stand apart in the source and are kept apart here. Where no end group is shown, it is not given here.

Key:
[1] = Cell viability (%) by flow cytometry; assay type: cell-based; details: GFP-NLS 5 μM, read-out: Cell viability (%) (±St. Dev.; n = 3); for viability at 15 s, 5 µM: Protocol C, shuttle 5 μM, 15 seconds; for viability at 10 s, 35 µM: Protocol B, shuttle 35 μM, 10 seconds
Procedure: (§1) The ability of the shuttle agent His-CM18-PTD4 to deliver GFP-NLS to the nuclei of different adherent and suspension cells using Protocols B (adherent cells) or C (suspension cells) as described in Example 9.1 was examined. The cell lines tested included: HeLa, Balb3T3, HEK 293T, CHO, NIH3T3, Myoblasts, Jurkat, THP-1, CA46, and HT2 cells, which were cultured as described in Example 1. GFP-NLS (5 μM; see Example 5.1) was co-incubated with 35 μM of His-CM18-PTD4 and exposed to adherent cells for 10 seconds (Protocol B), or was co-incubated with 5 μM of His-CM18-PTD4 and exposed to suspension cells for 15 seconds (Protocol C). […] “Pos cells (%)” is the mean percentages of all cells that emanate a GFP signal.

THP-1 cells = test: Cell toxicity / % cell viability by flow cytometry (cells in total events v. untreated); assay type: cell-based, human; details: THP-1, daily 150 min exposure with serum, shuttle 0.8 μM, GFP-NLS 1 μM
[2] = as above; assay type: cell-based, human; details: human, THP-1 cells, Cell viability (%) (±St. Dev.; n = 3), THP-1; for viability at 15 s, 5 µM: shuttle 5 μM, 15 seconds
[3] = Cell viability (%) by flow cytometry; assay type: cell-based, Chinese hamster; details: CHO cells, Protocol B, shuttle 35 μM, GFP-NLS 5 μM, 10 seconds, read-out: Cell viability (%) (±St. Dev.; n = 3)
Procedure: as §1

HeLa cells = test: Cell toxicity / % cell viability by flow cytometry (cells in total events v. untreated); assay type: cell-based, Human; details: HeLa, Protocol B, GFP-NLS 5 μM, 10 seconds
Description: (§2) The fluorescence of GFP was quantified using flow cytometry (Accuri C6, Becton, Dickinson and Company (BD)). Untreated cells were used to establish a baseline in order to quantify the increased fluorescence due to the internalization of the fluorescent protein in treated cells. The percentage of cells with a fluorescence signal above the maximum fluorescence of untreated cells, “mean %” or “Pos cells (%)”, is used to identify positive fluorescent cells. “Relative fluorescence intensity (FL1-A)” corresponds to the mean of all fluorescence intensities from each cell with a fluorescent signal after fluorescent protein delivery with the shuttle agent. Also, the events scanned by flow cytometry corresponding to cells (size and granularity) were analyzed. The cellular toxicity (% cell viability) was monitored comparing the percentage of cells in the total events scanned of treated cells comparatively to untreated cells.

[4] = as above; assay type: cell-based, Human; details: human, HeLa cells, HeLa, GFP-NLS 5 μM; for viability at 10 s, 35 µM: shuttle 35 μM; for viability at 10 s, 50 µM: shuttle 50 μM
Description: as §2

[5] = Cell viability (%) (±St. Dev.; n = 3), FIG. 22B, Protocol B, 10 seconds, read-out: Cell viability (%) (±St. Dev.; n = 3), FIG. 22B

Sequence “HHHHHHKWKLFKKIGAVLKVLTTGYARAAARQARA [His-CM18-PTD4]” has a viability at 15 s, 5 µM ([1]; human, CA46 cells) of 71.6 ± 1%, a viability at 10 s, 35 µM ([1]; human, HEK 293T cells) of 95.3 ± 1.2% and a viability at 15 s, 5 µM ([1]; human, Jurkat cells) of 73.6 ± 0.7%. The viability at 10 s, 35 µM ([1]; human, Myoblasts) was 23.5 ± 1.1%, the viability at 10 s, 35 µM ([1]; mouse, Balb3T3 cells) was 98.4 ± 0.6% and the viability at 15 s, 5 µM ([1]; mouse, HT2 cells) was 90.6 ± 1.5%. For the same sequence, the viability at 10 s, 35 µM ([1]; mouse, NIH3T3 cells) was 3.3 ± 5.4%, the “Cell viability (%) (±St. Dev.; n = 3)” value (THP-1 cells; exposure 1 day) was 98.4 ± 6.4% and the “Cell viability (%) (±St. Dev.; n = 3)” value (THP-1 cells; exposure 3 days) was 80.6 ± 4.6%. The viability at 1 h, 1 µM ([2]; FIG. 31, Protocol A, shuttle 1 μM, GFP-NLS 5 μM, 1 hour) was 96.9 ± 3.6%, the viability at 0.5 µM ([2]; FIG. 31, Protocol C, shuttle 0.5 μM, GFP-NLS 5 μM) was 82.1 ± 2.7% and the viability at 15 s, 5 µM ([2]; FIG. 31, Protocol C, GFP-NLS 5 μM, read-out: Cell viability (%) (±St. Dev.; n = 3), FIG. 31) was 64 ± 4.1%. It also gave a viability at 15 s, 1 µM ([2]; Protocol C, shuttle 1 μM, GFP-NLS 5 μM, incubation time 15 sec, read-out: Cell viability (%) (±St. Dev.; n = 3)) of 90 ± 3%, a viability at 0.5 min, 1 µM ([2]; Protocol C, shuttle 1 μM, GFP-NLS 5 μM, incubation time 30 sec, read-out: Cell viability (%) (±St. Dev.; n = 3)) of 89 ± 1.1% and a viability at 1 min, 1 µM ([2]; Protocol C, shuttle 1 μM, GFP-NLS 5 μM, incubation time 60 sec, read-out: Cell viability (%) (±St. Dev.; n = 3)) of 85.3 ± 3.6%. It also gave a viability at 2 min, 1 µM ([2]; Protocol C, shuttle 1 μM, GFP-NLS 5 μM, incubation time 120 sec, read-out: Cell viability (%) (±St. Dev.; n = 3)) of 74.3 ± 3.2%, a viability at 15 s, 5 µM ([2]; Protocol C, GFP-NLS 5 μM, read-out: Cell viability (%) (±St. Dev.; n = 3)) of 64.1 ± 4.5% and a viability at 24 h, 0.5 µM ([2]; daily 150 min exposure with serum, shuttle 0.5 μM, GFP-NLS 5 μM, exposure 1 day) of 98.2 ± 2.4%. It also gave a viability at 72 h, 0.5 µM ([2]; daily 150 min exposure with serum, shuttle 0.5 μM, GFP-NLS 5 μM, exposure 3 days) of 84.3 ± 3.8%, a viability at 24 h, 0.8 µM ([2]; daily 150 min exposure with serum, shuttle 0.8 μM, GFP-NLS 2.5 μM, exposure 1 day, read-out: Cell viability (%) (±St. Dev.; n = 3)) of 92.3 ± 1.9% and a viability at 72 h, 0.8 µM ([2]; daily 150 min exposure with serum, shuttle 0.8 μM, GFP-NLS 2.5 μM, exposure 3 days, read-out: Cell viability (%) (±St. Dev.; n = 3)) of 68.5 ± 2.2%. For the same sequence, the viability at 10 s, 35 µM [3] was 92.8 ± 0.1%, the “Cell viability (%) (±St. Dev.; n = 3)” value (HeLa cells; shuttle 35 μM) was 94.6 ± 0.4% and the “Cell viability (%) (±St. Dev.; n = 3), FIG. 29E” value (HeLa cells; shuttle 50 μM) was 92 ± 3.6%. It also gave a viability at 1 h, 10 µM ([4]; Cell viability (%) (± St. Dev.; n = 3), Protocol A, shuttle 10 μM, 1 hour) of 96.4 ± 2.7%, a viability at 10 s, 35 µM ([4]; Cell viability (%) (± St. Dev.; n = 3), Protocol B, 10 seconds, read-out: Cell viability (%) (± St. Dev.; n = 3)) of 94.6 ± 0.4% and a viability at 10 s, 10 µM ([4]; Cell viability (%) (±St. Dev.; n = 3), FIG. 22B, Protocol B, shuttle 10 μM, 10 seconds) of 96.3 ± 2.3%. It also gave a viability at 10 s, 25 µM ([4]; Cell viability (%) (±St. Dev.; n = 3), FIG. 22B, Protocol B, shuttle 25 μM, 10 seconds) of 95.3 ± 3.7%, a viability at 10 s, 35 µM [4, 5] of 79.6 ± 5.9% and a viability at 10 s, 50 µM [4, 5] of 69.2 ± 2.7%. The viability at 10 s, 50 µM ([4]; Cell viability (%) (±St. Dev.; n = 3), FIG. 29A, Protocol B, 10 seconds, read-out: Cell viability (%) (±St. Dev.; n = 3), FIG. 29A) was 92 ± 3.6%, the viability at 1 min, 10 µM ([4]; Cell viability (%) (±St. Dev.; n = 3), FIG. 29B, Protocol B, shuttle 10 μM, incubation 1 min., read-out: Cell viability (%) (±St. Dev.; n = 3), FIG. 29B) was 97.6 ± 2.7% and the viability at 2 min, 10 µM ([4]; Cell viability (%) (±St. Dev.; n = 3), FIG. 29B, Protocol B, shuttle 10 μM, incubation 2 min., read-out: Cell viability (%) (±St. Dev.; n = 3), FIG. 29B) was 80.9 ± 3.2%. The viability at 5 min, 10 µM ([4]; Cell viability (%) (±St. Dev.; n = 3), FIG. 29B, Protocol B, shuttle 10 μM, incubation 5 min., read-out: Cell viability (%) (±St. Dev.; n = 3), FIG. 29B) was 66.2 ± 4.4% and the viability at 1 min, 20 µM ([4]; Cell viability (%) (±St. Dev.; n = 3), FIG. 29I, Protocol B, shuttle 20 μM, 1 minute, read-out: Cell viability (%) (±St. Dev.; n = 3), FIG. 29I) was 81.6 ± 4.5%.
